Row | melting point | Compound
1 | 228 to 230 °C | CCc1nnc(-c2ccc(-c3ccccc3)cc2)n1-c1cccc2cnccc12
2 | 77 to 82 °C | COC(=O)Cc1cccc(CCN(C)CCCC(C#N)(c2ccc(OC)c(OC)c2)C(C)C)c1 (configuration not stated)
3 | 143 to 144 °C | CCOC(=O)c1c(N2CCCCC2)c(C#N)c(=O)n2ccccc12
4 | 103 to 106 °C | Oc1cccc(OCCCCOc2cccc(O)c2)c1
5 | 114 to 119 °C | O=C(Nc1cc(C(F)(F)F)ccc1N1CCc2ccccc21)c1ccccc1
6 | 274 to 275 °C | S=C1Nc2ccc(Cl)cc2Nc2ccccc21
7 | 143 to 146 °C | CCOC(=O)c1cc(N)c(N)nc1C(=O)OCC
8 | 105 to 107 °C | CCOC(=NC(=O)OC)NC(=O)Nc1cc(C(=O)OC)c(Cl)cc1F
9 | 99 °C | CNC(=O)NS(=O)(=O)c1cc(CCNC(=O)/C=C/c2cccs2)ccc1OCCOC
10 | 122 to 124 °C | Nc1ccc(-c2ccc(Cl)cc2)cn1
11 | 148 °C | CCC(=O)C1CCC2C3CCC4CC(=O)CCC4(C)C3C(=O)CC12C (configuration not stated)
12 | 102 °C | CCNC(=O)c1ccc(F)c(Cl)c1
13 | 100 °C | CCCNC(=O)CCCc1ccc2c(c1)c(Cc1ccc(C(=O)OC)cc1OC)cn2CCC
14 | 94 to 96 °C | CC(C)(C)NCCCNC(=O)Cn1cnc(-c2ccccc2)c1-c1ccccc1
15 | 106 to 108 °C | CCc1nn2ccccc2c1NC(=O)COC
16 | 238 to 240 °C | CCOc1ccc(C(=O)NCc2ccc3c(c2)C(=O)N(C2CCC(=O)NC2=O)C3=O)nn1 (configuration not stated)
17 | 231 to 233 °C | Cc1ccc2nc(-c3ccc(C#N)cc3)c(CNC(=O)CC(C)C)n2c1
18 | 101 to 102 °C | CC(C)(C)C(Cc1ccc(Br)cc1)C(=O)n1ccnc1 (configuration not stated)
19 | 87 to 89 °C | CC(C)[Si](OC[C@H]1C(C=O)=Cc2cc3c(cc2[C@@H]1O)OCO3)(C(C)C)C(C)C
20 | 120 to 121 °C | CSc1nc(Cl)c2ncccc2n1
21 | 189 to 190 °C | Cc1ccc2ncn([C@H](C)[C@](O)(Cn3cncn3)c3ccc(F)cc3F)c(=O)c2c1
22 | 134 to 136 °C | CCOC(=O)COc1cccc(-c2n[nH]c3c2Cc2ccccc2-3)c1
23 | 77 to 79 °C | CC(=O)OCC1OC(n2ncc(C#N)n2)C(OC(C)=O)C1OC(C)=O (configuration not stated)
24 | 155 to 160 °C | Cn1cc(-c2cccc(S(=O)(=O)n3ccc(/C=C/C(=O)NO)c3)c2)cn1
25 | 92 to 94 °C | O=C(Nc1ccc(Oc2ccnc(NCCN3CCCC3)n2)c2ccccc12)c1cc(F)cc(N2CCCCC2)c1
26 | 260 °C | CC(C)(C)OC(=O)Nc1ccncc1C(=O)O
27 | 203 °C | O=C(O)Cc1c(C(=O)O)c2cc(Oc3ccc(C(F)(F)F)cn3)ccc2n1-c1ccc(OC(F)(F)F)cc1

Row | melting point | Compound
28 | 180 to 181 °C | COC(=O)c1ccc(-c2nc(-c3cc(C(F)(F)F)cc(C(F)(F)F)c3)co2)cc1
29 | 112 °C | CCCCS(=O)Cc1cc(C)c(CCl)cc1C (configuration not stated)
30 | 157 to 159 °C | O=C(Nc1cccnc1NCC(O)c1ccccc1)c1ccc(Cl)cc1 (configuration not stated)
31 | 74.5 to 79.5 °C | CC(C)SC1=C(O)CC(C)(C)CC1=O
32 | 253 °C | COc1cc2c(cc1OC)C(=Cc1cc(O)ccc1[N+](=O)[O-])OC2=O
33 | 160 °C | CCNC(=O)Cc1ccc2ccn(C3CCN(CCc4ccc(F)cc4)CC3)c2c1
34 | 151 to 154 °C | CNC(=O)N(C)C1=NN(C(C)=O)C(C)(C)S1
35 | 226 to 227 °C | Cc1cc2c(cc1C)CC(C)NC(=O)C2 (configuration not stated)
36 | 116 to 118 °C | CCCCCCNC(=O)c1cnc2cccc(C)n2c1=O
37 | 99 to 102 °C | Cc1cc(C)cc(-c2nc(N)sc2-c2ccnc(NCc3ccccc3)c2)c1
38 | 167 to 168 °C | COc1ccc(C(=O)O)s1
39 | 60 to 62 °C | COc1nc(C)c(C)cc1NC(=S)N1CCN(c2cc(F)cc(F)c2)CC1
40 | 133 to 135 °C | CCOc1ccc(C2=NN(C3CCN(C(=O)CCCC(=O)O)CC3)C(=O)[C@@H]3CC=CC[C@H]23)cc1OCC
41 | 96 to 97 °C | O=C1CCCCC1C(C[N+](=O)[O-])c1ccc(Cl)cc1 (racemic)
42 | 145 to 146 °C | CCCCCCN1C(=O)C(=CC(=O)O)SC1=Nc1ccccc1
43 | 202 to 204 °C | CCOC(=O)c1c(-c2ccc(C(C)(C)C)cc2)n(C)n(-c2ccc(C#N)cc2)c1=O
44 | 219 to 220 °C | N[C@H](C(=O)O)c1ccc(OCCOC2CCCCC2)cc1
45 | 127 to 129 °C | COC(=O)c1cc(S(C)(=O)=O)nc(Cl)n1
46 | 102 to 108 °C | COC(=O)C1CC(C#N)(c2ccc(OC)c(OC)c2)CCC1=O (configuration not stated)
47 | 162 to 164 °C | Brc1cc(Br)c(COCc2cc(Br)c(Br)cc2Br)cc1Br
48 | 93 to 103 °C | Cc1cc(Nc2ccnc(Nc3ccc(S(=O)(=O)N(CCN4CCCC4)C4CCN(C)CC4)cc3)n2)ccc1F
49 | 49 to 51 °C | C1CNCCNCCCNCCNCCNC1
50 | 99 to 100 °C | CCOc1cccc(-c2cc3n(n2)-c2ccccc2CC3)c1
51 | 190 to 191 °C | O=[N+]([O-])c1ccc(C2Nc3ccccc3-c3c([N+](=O)[O-])cnn32)cc1 (configuration not stated)
52 | 69 to 70 °C | COC(=O)CCCCCNC(=O)c1cccc(OC)c1O
53 | 155 to 157 °C | Brc1ccc(-c2ccc(-c3ccc(Br)o3)cc2)o1

Second part, the compound before the results:

Row | Compound | melting point
54 | Cn1ncc(/C=C/C(=O)Nc2ccc(Cc3ccccn3)cc2)c1-c1ccc(F)cc1 | 215 to 216 °C
55 | CS(=O)(=O)Nc1ccc(C#CCCN2CC=C(c3ccccc3)CC2)nc1 | 138 to 139 °C
56 | N#Cc1ccc(Cn2cncc2CCNC(=O)[C@H]2CN(Cc3ccccc3)CCN2C(=O)CC2CCN(C(N)=O)CC2)cc1 | 118 °C
57 | CNC(=N[N+](=O)[O-])SC | 150 to 152 °C
58 | CCOC(=O)c1c(C)nc(Cl)c([N+](=O)[O-])c1NC(C)(C)C | 35 to 36 °C
59 | CCOC(=O)c1ncn2c1C(C)N=C(c1ccccc1)c1cc(Br)ccc1-2 (configuration not stated) | 164 to 165 °C
60 | COC(=O)CN1CCC(NC(=O)OC(C)(C)C)CC1 | 96 to 98 °C
61 | CCCCc1nc2ccccn2c(=O)c1-c1ccc(Cl)c(OC)c1 | 113 to 115 °C
62 | N#CCNSc1ccc(Cl)cc1 | 74 to 76 °C
63 | O=C1c2cc(Br)ccc2COc2ccc(Br)cc21 | 193 to 194 °C
64 | COc1cc(OC)nc(Sc2cnn(C)c2NS(=O)(=O)CC#N)n1 | 147 to 148 °C
65 | COc1ccc(N2C(=O)C3=C(SCCS3)C2O)cc1 (configuration not stated) | 153 to 154 °C
66 | COC(=O)CCC(=O)Oc1c(C)c(C)c2c(c1C)SC(C)O2 (configuration not stated) | 73 to 75 °C
67 | CCCCc1oc2ccc([N+](=O)[O-])cc2c1C(=O)c1ccc(OCCCCCN(CCCC)CCCC)cc1 | 107 °C
68 | Clc1cc(C(Cl)(Cl)Cl)c(Cl)cc1C(Cl)(Cl)Cl | 202 to 203 °C
69 | CC1Nc2ccccc2-c2c([N+](=O)[O-])cnn21 (configuration not stated) | 173 to 175 °C
70 | O=C(Nc1ccccc1)N1CCN=C1CSc1ccccc1 | 117 to 119 °C
71 | O=C(O)Cc1noc(Cc2ccccc2)n1 | 109 to 112 °C
72 | CCCCCCc1ccc(C#Cc2ccc(C=O)cc2)cc1 | 67 °C
73 | Cc1nc2cc(C)c(CN(C)c3ccc(C(=O)NC(CO)c4cccc([N+](=O)[O-])c4)cc3)cc2c(=O)[nH]1 (configuration not stated) | 231 to 240 °C
74 | CC(C)(CO)COc1ccc(-c2c(C(N)=O)oc3ccccc23)cc1C#N | 199 to 201 °C
75 | COc1nc(C)c(C)nc1NC(=S)N1CCN(c2cccc(Br)c2)CC1 | 136 to 138 °C
76 | COc1ccc2oc(=O)c(S(=O)(=O)Nc3ccc(F)c(N)c3)cc2c1 | 255 to 260 °C
77 | CC(C)Oc1cc(NC(=O)CC(CCCl)C(F)(F)F)c(F)cc1Cl (configuration not stated) | 57 to 63 °C
78 | CN1CCC(=C2c3ccccc3CCc3ccc(CO)cc32)CC1 | 178 to 181 °C

Row | Compound | melting point
79 | COC(=O)C1=C(N)NC(C)=C([N+](=O)[O-])C1c1ccccc1S(=O)(=O)CCCCN1CCN(c2ccccc2OC)CC1 (configuration not stated) | 145 to 147 °C
80 | Nc1c(Cl)cc(C(O)CNCCCCCOCCc2ccccn2)cc1Cl (configuration not stated) | 140 to 142 °C
81 | CCCCc1cc2c(=O)n3cc(C#N)ccc3nc2s1 | 216 to 217 °C
82 | CCCCc1nc2c(N)nc3cc(-c4ccc(OCCC)cc4)ccc3c2n1CC(C)C | 194 to 197 °C
83 | CC(C)C[C@H](NC(=O)c1ccc2c(c1)Nc1ccccc1S2)C(=O)N[C@H]1CCOC1OC(=O)CC(C)(C)C (some centres not stated) | 111 to 113 °C
84 | CSc1ccnc(-c2nc(=O)c3ccccc3s2)c1 | 213 to 214 °C
85 | Cc1cccc(CC(=O)O)c1OCCCc1cn(-c2ccc(C(F)(F)F)cn2)nc1C1CCCCC1 | 184 to 185 °C
86 | O=C(C1CCN(c2ccncc2)CC1)N1CCC(Oc2ccc(Br)cc2)CC1 | 127 to 130 °C
87 | CCCCCCOc1c2c(c(-c3ccc4c(c3)OCO4)c3c4c(ccc13)OCO4)C(=O)NC2=O | 222 to 223 °C
88 | CNC(=O)Oc1cccc(C2CCCN2Cc2ccncc2)c1 (configuration not stated) | 92 to 105 °C
89 | CC#CCOc1ccc(SC(C(=O)NO)c2ccc(-c3cccs3)cc2)cc1 (configuration not stated) | 182 °C
90 | Cc1ccc2c(CCNCC#N)c[nH]c2c1 | 92 °C
91 | CCCc1cccnc1N(CC)C1CCN(C(=O)c2ccc[nH]2)CC1 | 115 to 116 °C
92 | COc1ccc(-c2noc3c2CCCC(C(=O)O)C3)cc1 (configuration not stated) | 194 to 196 °C
93 | O=C1c2ccccc2C(=O)N1C1CCC(c2cc(F)c(Br)cc2F)C1 (configuration not stated) | 44 to 47 °C
94 | Nc1cc(Br)cnc1CCCCNc1nccc(=O)[nH]1 | 130 to 135 °C
95 | O=C1Cc2cc(CCN3CCC(c4noc5cc(F)ccc45)CC3)ccc2N1 | 199 to 204 °C
96 | COc1cc2cc3c(N)c(C(N)=O)sc3nc2cc1OC | 278 to 280 °C
97 | COC(=O)[C@@]12CN(Cc3ccccc3)C[C@@H]1[C@@](O)(c1ccc(C)cc1)CC[C@H]2c1ccccc1 (racemic) | 164 °C
98 | O=C(NCCOC1CCCCO1)c1cc([N+](=O)[O-])cc([N+](=O)[O-])c1N(CCO)CCBr (configuration not stated) | 121 to 123 °C
99 | COC(=O)C1CC(C#N)(c2ccc(OC(F)F)c(OC3CCCC3)c2)CCC1=O (configuration not stated) | 109 to 110 °C
100 | COCOc1ccc(-c2ccc(OCOC)c(F)c2)cc1F | 76.3 to 77.3 °C
101 | NC(=O)c1[nH]c2ccc(Cl)cc2c1S(=O)(=O)c1ccc(Cl)cc1 | 275 to 277 °C
102 | O=C(NCCO)c1ccc(-c2ccc3nnn(Cc4ccc5ncccc5c4)c3n2)cc1 | > 260 °C
